What was measured:
[1] = system: L5178Y; assay: Cytotoxic activity against mouse L5178Y cells by MTT assay; format: functional, cell-based
[2] = system: L5178Y; assay: Cytotoxic activity against mouse L5178Y cells assessed as growth inhibition at 10 ug/ml by MTT assay; format: functional; conditions: read-out: GI

Row | Compound | IC50 [1] | inhibition of growth at 10 µg/mL [2]
1 | COc1cc2ccnc3ccn4cnc1c4c23 | 13.5 µM | 98.7%
2 | COC1=Cc2ccnc3c(N)cnc(c23)C1=O | – | 64.4%
3 | COc1cc2cc(C(=O)c3ccccc3)nc3c2c(c1O)NC=C3 | 5.5 µM | 93.7%
4 | COc1cc2ccnc3ccn4c(=O)cnc1c4c23 | – | 0%
5 | COc1nc2c(OC)cc3ccnc4ccn(c1=O)c2c34 | – | 38.6%
6 | COC1=Cc2ccnc3ccnc(c23)C1(OC)OC | – | 51.2%
7 | COc1cc2ccnc3c2c(c1OC)NC=C3 [AAPTAMINE] | 8.3 µM | 100%

Source: ChEMBL document CHEMBL2331150, “Aaptamine derivatives from the Indonesian sponge Aaptos suberitoides” (J Nat Prod, 2013)
